Assay results from patent US12077503B2, “Substituted cyclic amides and their use as herbicides” (FMC CORPORATION, priority 2015, dated 2024).

Experiments:
Format in all cases: in vivo
[1] = test system: barnyardgrass (Echinochloa crus-galli); experiment: Test A preemergence; settings: for Plant response rating, Barnyardgrass: 125 g ai/ha, preemergence, 0 to 100 scale (0 no effect, 100 complete control); for Barnyardgrass plant response rating (0 to 100 scale): Preemergence, 500 g ai/ha, 0 is no effect, 100 is complete control
From the text: (§1) Seeds of plant species selected from barnyardgrass (Echinochloa crus-galli), Kochia (Kochia scoparia), ragweed (common ragweed, Ambrosia elatior), ryegrass, Italian (Italian ryegrass, Lolium multiflorum), crabgrass, large (Digitaria sanguinalis), giant foxtail (Setaria faberii), green foxtail (Setaria viridis), morningglory (Ipomoea spp.), pigweed (Amaranthus retroflexus), velvetleaf (Abutilon theophrasti), wheat (Triticum aestivum), and corn (Zea mays) were planted into a blend of loam soil and sand and treated preemergence with a directed soil spray using test chemicals formulated in anon-phytotoxic solvent mixture which included a surfactant.
(§2) At the same time, plants selected from these crop and weed species and also blackgrass (Alopecurus myosuroides), and Galium (catchweed bedstraw, Galium aparine) were planted in pots containing the same blend of loam soil and sand and treated with postemergence applications of test chemicals formulated in the same manner. Plants ranged in height from 2 to 10 cm and were in the one- to two-leaf stage for the postemergence treatment. Treated plants and untreated controls were maintained in a greenhouse for approximately 10 d, after which time all treated plants were compared to untreated controls and visually evaluated for injury. Plant response ratings, summarized in Table A, are based on a 0 to 100 scale where 0 is no effect and 100 is complete control. A dash (-) response means no test result.

[2] = test system: ragweed (common ragweed, Ambrosia elatior); experiment: Test A preemergence; settings: for Plant response rating, Ragweed: 125 g ai/ha, preemergence, 0 to 100 scale (0 no effect, 100 complete control); for Ragweed plant response rating (0 to 100 scale): Preemergence, 500 g ai/ha, 0 is no effect, 100 is complete control
From the text: as §1, §2

[3] = test system: giant foxtail (Setaria faberii); experiment: Test A preemergence; settings: for Plant response rating, Foxtail, Giant: 125 g ai/ha, preemergence, 0 to 100 scale (0 no effect, 100 complete control); for Foxtail, Giant plant response rating (0 to 100 scale): Preemergence, 500 g ai/ha, 0 is no effect, 100 is complete control
From the text: as §1, §2

[4] = test system: ryegrass, Italian (Italian ryegrass, Lolium multiflorum); experiment: Test A preemergence; settings: for Plant response rating, Ryegrass, Italian: 125 g ai/ha, preemergence, 0 to 100 scale (0 no effect, 100 complete control); for Ryegrass, Italian plant response rating (0 to 100 scale): Preemergence, 500 g ai/ha, 0 is no effect, 100 is complete control
From the text: as §1, §2

[5] = test system: Kochia (Kochia scoparia); experiment: Test A preemergence; settings: for Plant response rating, Kochia: 125 g ai/ha, preemergence, 0 to 100 scale (0 no effect, 100 complete control); for Kochia plant response rating (0 to 100 scale): Preemergence, 500 g ai/ha, 0 is no effect, 100 is complete control
From the text: as §1, §2

[6] = test system: pigweed (Amaranthus retroflexus); experiment: Test A preemergence; settings: for Plant response rating, Pigweed: 125 g ai/ha, preemergence, 0 to 100 scale (0 no effect, 100 complete control); for Pigweed plant response rating (0 to 100 scale): Preemergence, 500 g ai/ha, 0 is no effect, 100 is complete control
From the text: as §1, §2

[7] = test system: barnyardgrass (Echinochloa crus-galli); experiment: Test A postemergence
From the text: as §1, §2

[8] = test system: ragweed (common ragweed, Ambrosia elatior); experiment: Test A postemergence
From the text: as §1, §2

[9] = test system: wheat (Triticum aestivum); experiment: Test A postemergence
From the text: as §1, §2

[10] = test system: giant foxtail (Setaria faberii); experiment: Test A postemergence
From the text: as §1, §2

[11] = test system: Galium (catchweed bedstraw, Galium aparine); experiment: Test A postemergence
From the text: as §1, §2

[12] = test system: ryegrass, Italian (Italian ryegrass, Lolium multiflorum); experiment: Test A postemergence
From the text: as §1, §2

[13] = test system: Kochia (Kochia scoparia); experiment: Test A postemergence
From the text: as §1, §2

[14] = test system: corn (Zea mays); experiment: Test A postemergence
From the text: as §1, §2

[15] = test system: pigweed (Amaranthus retroflexus); experiment: Test A postemergence
From the text: as §1, §2

[16] = test system: blackgrass (Alopecurus myosuroides); experiment: Test A postemergence
From the text: as §1, §2

[17] = test system: sedge, umbrella (small-flower umbrella sedge, Cyperus difformis); experiment: Test B flooded paddy test; settings: Flood, 250 g ai/ha; 0 to 100 scale where 0 is no effect and 100 is complete control; 13 to 15 d
Description: (§3) Plant species in the flooded paddy test selected from rice (Oryra sativa), sedge, umbrella (small-flower umbrella sedge, Cyperus difformis), ducksalad (Heteranthera limosa), and barnyardgrass (Echinochloa crus-galli) were grown to the 2-leaf stage for testing. At time of treatment, test pots were flooded to 3 cm above the soil surface, treated by application of test compounds directly to the paddy water, and then maintained at that water depth for the duration of the test. Treated plants and controls were maintained in a greenhouse for 13 to 15 d, after which time all species were compared to controls and visually evaluated. Plant response ratings, summarized in Table B, are based on a scale of 0 to 100 where 0 is no effect and 100 is complete control. A dash (-) response means no test result.

[18] = test system: barnyardgrass (Echinochloa crus-galli); experiment: Test B flooded paddy test; settings: Flood, 250 g ai/ha; 0 to 100 scale where 0 is no effect and 100 is complete control; 13 to 15 d
Description: as §3

[19] = test system: ducksalad (Heteranthera limosa); experiment: Test B flooded paddy test; settings: Flood, 250 g ai/ha; 0 to 100 scale where 0 is no effect and 100 is complete control; 13 to 15 d
Description: as §3

[20] = test system: rice (Oryra sativa); experiment: Test B flooded paddy test; settings: Flood, 250 g ai/ha; 0 to 100 scale where 0 is no effect and 100 is complete control; 13 to 15 d
Description: as §3

[21] = 500 g ai/ha, postemergence, 0 to 100 scale, 0 no effect, 100 complete control
[22] = Postemergence, 125 g ai/ha, visual injury, 0 to 100 scale (0 no effect, 100 complete control), approx. 10 d

Cc1cccc(C2CNC(=O)C2C(=O)Nc2ccccc2C(F)(F)F)c1 (racemic) [Compound 374]
Plant response rating, Barnyardgrass [1]: 90
Barnyardgrass plant response rating (0 to 100 scale) [1]: 90
Plant response rating, Ragweed [2]: 0
Ragweed plant response rating (0 to 100 scale) [2]: 0
Plant response rating, Foxtail, Giant [3]: 90
Foxtail, Giant plant response rating (0 to 100 scale) [3]: 90
Plant response rating, Ryegrass, Italian [4]: 0
Ryegrass, Italian plant response rating (0 to 100 scale) [4]: 30
Plant response rating, Kochia [5]: 0
Kochia plant response rating (0 to 100 scale) [5]: 0
Plant response rating, Pigweed [6]: 0
Pigweed plant response rating (0 to 100 scale) [6]: 0
Plant response rating, Barnyardgrass [7, 21]: 90
Plant response rating, Barnyardgrass [7, 22]: 80
Plant response rating, Ragweed [8, 21]: 0
Plant response rating, Ragweed [8, 22]: 0
Plant response rating, Wheat [9, 21]: 40
Plant response rating, Wheat [9, 22]: 0
Plant response rating, Foxtail, Giant [10, 21]: 50
Plant response rating, Foxtail, Giant [10, 22]: 20
Plant response rating, Galium [11, 21]: 40
Plant response rating, Galium [11, 22]: 0
Plant response rating, Ryegrass, Italian [12, 21]: 0
Plant response rating, Ryegrass, Italian [12, 22]: 0
Plant response rating, Kochia [13, 21]: 0
Plant response rating, Kochia [13, 22]: 0
Plant response rating, Corn [14, 21]: 20
Plant response rating, Corn [14, 22]: 0
Plant response rating, Pigweed [15, 21]: 0
Plant response rating, Pigweed [15, 22]: 0
Plant response rating, Blackgrass [16, 21]: 50
Plant response rating, Blackgrass [16, 22]: 0
Plant response rating, Sedge, Umbrella [17]: 0
Plant response rating, Barnyardgrass [18]: 60
Plant response rating, Ducksalad [19]: 95
Plant response rating, Rice [20]: 30

O=C1NCC(c2cccc(F)c2)C1C(=O)Nc1cccc(F)c1F (racemic) [Compound 375]
Plant response rating, Barnyardgrass [1]: 90
Barnyardgrass plant response rating (0 to 100 scale) [1]: 90
Plant response rating, Ragweed [2]: 0
Ragweed plant response rating (0 to 100 scale) [2]: 70
Plant response rating, Foxtail, Giant [3]: 90
Foxtail, Giant plant response rating (0 to 100 scale) [3]: 90
Plant response rating, Ryegrass, Italian [4]: 20
Ryegrass, Italian plant response rating (0 to 100 scale) [4]: 50
Plant response rating, Kochia [5]: 20
Kochia plant response rating (0 to 100 scale) [5]: 70
Plant response rating, Pigweed [6]: 20
Pigweed plant response rating (0 to 100 scale) [6]: 70
Plant response rating, Barnyardgrass [7, 21]: 90
Plant response rating, Barnyardgrass [7, 22]: 90
Plant response rating, Ragweed [8, 21]: 20
Plant response rating, Ragweed [8, 22]: 0
Plant response rating, Wheat [9, 21]: 80
Plant response rating, Wheat [9, 22]: 30
Plant response rating, Foxtail, Giant [10, 21]: 90
Plant response rating, Foxtail, Giant [10, 22]: 90
Plant response rating, Galium [11, 21]: 50
Plant response rating, Galium [11, 22]: 40
Plant response rating, Ryegrass, Italian [12, 21]: 20
Plant response rating, Ryegrass, Italian [12, 22]: 0
Plant response rating, Kochia [13, 21]: 60
Plant response rating, Kochia [13, 22]: 30
Plant response rating, Corn [14, 21]: 80
Plant response rating, Corn [14, 22]: 30
Plant response rating, Pigweed [15, 21]: 50
Plant response rating, Pigweed [15, 22]: 20
Plant response rating, Blackgrass [16, 21]: 70
Plant response rating, Blackgrass [16, 22]: 50
Plant response rating, Sedge, Umbrella [17]: 0
Plant response rating, Barnyardgrass [18]: 70
Plant response rating, Ducksalad [19]: 100
Plant response rating, Rice [20]: 30
